# Test results as given in PubChem BioAssay AID2060509 (Molecular Pharmacology Branch, DTP, NCI, 2025).
# Tested on: 485176-168-R4-J1-PDC spheroids with HUVEC/MSC, viability
# Assay: Anticancer human tumor 485176-168-R4-J1-PDC patient-derived pancreatic adenocarcinoma cell line growth inhibition [GQUAD]
# Conditions: for IC50: curve of first compound; for viability, T/C: stronger effect = lower value
# Method in brief: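 Tumor cells were grown as complex spheroids with HUVEC endothelial cells and mesenchymal stem cells as stroma. G-quadruplex stabilizers were combined with targeted agents over half-log dilutions from near the clinical Cmax, or from 10 microM.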
# [1] = second compound 0.0316 µM, first compound 0.0316 µM
# [2] = second compound 0.0316 µM, first compound 0.1 µM
# [3] = second compound 0.0316 µM, first compound 0.316 µM
# [4] = second compound 0.0316 µM, first compound 1 µM
# [5] = second compound 0.0316 µM, first compound 3.16 µM
# [6] = second compound 0.0316 µM, first compound 10 µM
# [7] = second compound 0.1 µM, first compound 0.0316 µM
# [8] = second compound 0.1 µM, first compound 0.1 µM
# [9] = second compound 0.1 µM, first compound 0.316 µM
# [10] = second compound 0.1 µM, first compound 1 µM
# [11] = second compound 0.1 µM, first compound 3.16 µM
# [12] = second compound 0.1 µM, first compound 10 µM
# [13] = second compound 0.316 µM, first compound 0.0316 µM
# [14] = second compound 0.316 µM, first compound 0.1 µM
# [15] = second compound 0.316 µM, first compound 0.316 µM
# [16] = second compound 0.316 µM, first compound 1 µM
# [17] = second compound 0.316 µM, first compound 3.16 µM
# [18] = second compound 0.316 µM, first compound 10 µM
# [19] = second compound 1 µM, first compound 0.0316 µM
# [20] = second compound 1 µM, first compound 0.1 µM
# [21] = second compound 1 µM, first compound 0.316 µM
# [22] = second compound 1 µM, first compound 1 µM
# [23] = second compound 1 µM, first compound 3.16 µM
# [24] = second compound 1 µM, first compound 10 µM
# [25] = second compound 3.16 µM, first compound 0.0316 µM
# [26] = second compound 3.16 µM, first compound 0.1 µM
# [27] = second compound 3.16 µM, first compound 0.316 µM
# [28] = second compound 3.16 µM, first compound 1 µM
# [29] = second compound 3.16 µM, first compound 3.16 µM
# [30] = second compound 3.16 µM, first compound 10 µM
# [31] = second compound 10 µM, first compound 0.0316 µM
# [32] = second compound 10 µM, first compound 0.1 µM
# [33] = second compound 10 µM, first compound 0.316 µM
# [34] = second compound 10 µM, first compound 1 µM
# [35] = second compound 10 µM, first compound 3.16 µM
# [36] = second compound 10 µM, first compound 10 µM
# 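Also: spheroids exposed to compounds for seven days before readout.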
# 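For viability, T/C in this document: percent viability relative to DMSO vehicle control wells as 100%.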
structure (smiles),measurement,setting,value
COc1cc(C2c3cc4c(cc3C(OC3OC5COC(C)OC5C(O)C3O)C3COC(=O)C23)OCO4)cc(OC)c1O (stereo unspecified) + Cc1cnc(CNC(=O)c2c(=O)c3ccc(N4CCCN(C)CC4)nc3n3c2sc2ccccc23)cn1,IC50,second compound 0.0316 µM,322 nM
same,IC50,second compound 0.1 µM,171 nM
same,IC50,second compound 0.316 µM,123 nM
same,IC50,second compound 1 µM,< 31.6 nM
same,IC50,second compound 3.16 µM,< 31.6 nM
same,IC50,second compound 10 µM,< 31.6 nM
same,"viability, T/C",[1],87.9%
same,"viability, T/C",[2],63.1%
same,"viability, T/C",[3],49.7%
same,"viability, T/C",[4],38.1%
same,"viability, T/C",[5],21%
same,"viability, T/C",[6],8.67%
same,"viability, T/C",[7],65.4%
same,"viability, T/C",[8],55.4%
same,"viability, T/C",[9],40.6%
same,"viability, T/C",[10],36%
same,"viability, T/C",[11],22.3%
same,"viability, T/C",[12],8.6%
same,"viability, T/C",[13],55.6%
same,"viability, T/C",[14],53.6%
same,"viability, T/C",[15],38.2%
same,"viability, T/C",[16],41.3%
same,"viability, T/C",[17],24.3%
same,"viability, T/C",[18],8.95%
same,"viability, T/C",[19],56%
same,"viability, T/C",[20],41.8%
same,"viability, T/C",[21],47.4%
same,"viability, T/C",[22],41.5%
same,"viability, T/C",[23],18.4%
same,"viability, T/C",[24],9.08%
same,"viability, T/C",[25],49.9%
same,"viability, T/C",[26],33.8%
same,"viability, T/C",[27],35.7%
same,"viability, T/C",[28],34.8%
same,"viability, T/C",[29],22.8%
same,"viability, T/C",[30],8.98%
same,"viability, T/C",[31],42.4%
same,"viability, T/C",[32],38.9%
same,"viability, T/C",[33],39.1%
same,"viability, T/C",[34],33.3%
same,"viability, T/C",[35],18.1%
same,"viability, T/C",[36],3.75%
CC1COCCN1c1cc(-c2ccnn2C)c2ccnc(-c3ccn[nH]3)c2n1 (stereo unspecified) + Cc1cnc(CNC(=O)c2c(=O)c3ccc(N4CCCN(C)CC4)nc3n3c2sc2ccccc23)cn1,IC50,second compound 0.0316 µM,< 31.6 nM
same,IC50,second compound 0.1 µM,< 31.6 nM
same,IC50,second compound 0.316 µM,< 31.6 nM
same,IC50,second compound 1 µM,< 31.6 nM
same,IC50,second compound 3.16 µM,< 31.6 nM
same,IC50,second compound 10 µM,< 31.6 nM
same,"viability, T/C",[1],40.6%
same,"viability, T/C",[2],15.9%
same,"viability, T/C",[3],12.9%
same,"viability, T/C",[4],8.3%
same,"viability, T/C",[5],10.7%
same,"viability, T/C",[6],11.9%
same,"viability, T/C",[7],22.2%
same,"viability, T/C",[8],12.2%
same,"viability, T/C",[9],7.9%
same,"viability, T/C",[10],11.2%
same,"viability, T/C",[11],10.8%
same,"viability, T/C",[12],11.7%
same,"viability, T/C",[13],18.2%
same,"viability, T/C",[14],9.35%
same,"viability, T/C",[15],8.47%
same,"viability, T/C",[16],7.9%
same,"viability, T/C",[17],10.6%
same,"viability, T/C",[18],10.4%
same,"viability, T/C",[19],12.6%
same,"viability, T/C",[20],9.48%
same,"viability, T/C",[21],9.86%
same,"viability, T/C",[22],8.6%
same,"viability, T/C",[23],11.5%
same,"viability, T/C",[24],10.6%
same,"viability, T/C",[25],15%
same,"viability, T/C",[26],11.8%
same,"viability, T/C",[27],10.1%
same,"viability, T/C",[28],10.4%
same,"viability, T/C",[29],9.56%
same,"viability, T/C",[30],9.96%
same,"viability, T/C",[31],16%
same,"viability, T/C",[32],11%
same,"viability, T/C",[33],9.84%
same,"viability, T/C",[34],9.05%
same,"viability, T/C",[35],9.12%
same,"viability, T/C",[36],10.4%
CC1COCCN1c1cc(C2(S(C)(=N)=O)CC2)nc(-c2ccnc3[nH]ccc23)n1 (stereo unspecified) + Cc1[nH]c2ccc(F)cc2c1-c1nc2c3cccnc3c3ncccc3c2[nH]1,IC50,second compound 0.0316 µM,1350 nM
same,IC50,second compound 0.1 µM,1840 nM
same,IC50,second compound 0.316 µM,1830 nM
same,IC50,second compound 1 µM,1910 nM
same,IC50,second compound 3.16 µM,1260 nM
same,IC50,second compound 10 µM,1240 nM
same,"viability, T/C",[1],110%
same,"viability, T/C",[2],90.4%
same,"viability, T/C",[3],97.8%
same,"viability, T/C",[4],53.6%
same,"viability, T/C",[5],32%
same,"viability, T/C",[6],15.5%
same,"viability, T/C",[7],89.4%
same,"viability, T/C",[8],103%
same,"viability, T/C",[9],85.5%
same,"viability, T/C",[10],69.9%
same,"viability, T/C",[11],32.7%
same,"viability, T/C",[12],16.4%
same,"viability, T/C",[13],88.3%
same,"viability, T/C",[14],103%
same,"viability, T/C",[15],84.8%
same,"viability, T/C",[16],66.9%
same,"viability, T/C",[17],35.2%
same,"viability, T/C",[18],14.1%
same,"viability, T/C",[19],92%
same,"viability, T/C",[20],97.3%
same,"viability, T/C",[21],96.5%
same,"viability, T/C",[22],66.7%
same,"viability, T/C",[23],36.4%
same,"viability, T/C",[24],13.7%
same,"viability, T/C",[25],83.5%
same,"viability, T/C",[26],89.9%
same,"viability, T/C",[27],75.5%
same,"viability, T/C",[28],57.6%
same,"viability, T/C",[29],24.7%
same,"viability, T/C",[30],14.7%
same,"viability, T/C",[31],84.7%
same,"viability, T/C",[32],104%
same,"viability, T/C",[33],80.9%
same,"viability, T/C",[34],55.6%
same,"viability, T/C",[35],26.4%
same,"viability, T/C",[36],13.8%
